Test results: PMC11674800, “Second-Generation Antipsychotics Induce Metabolic Disruption in Adipose Tissue-Derived Mesenchymal Stem Cells Through an aPKC-Dependent Pathway” (Cells, 2024)
Numbered stars: 1 amine (or outer) side, 2 acyl side, 3 side chain; on linkers, the order of the positions; unused ones are H or OH. Bridge positions count the residues as written; N and C are the ends. Square brackets hold non-standard residues; d marks the D form. Peptide text beside a SMILES is read from it. X1 = CC(=O)NC(C(=O)OC(C(C)C)C(N[*:1])C(=O)[*:2])C(O)C(C)C; PhLac = O=C(O)[CH](O)Cc1ccccc1; NMeT = CN[CH](C(=O)O)[CH](C)O; NMeA = CN[CH](C)C(=O)O; NMeDha = C=C(NC)C(=O)O

Assays:
ADSCs [1] = experiment: Acidic vesicle quantification (Lysotracker); type: cell-based, human; settings: for effect of co-treatment on acidic vesicle accumulation in olanzapine-treated cells / reduction of olanzapine-induced accumulation of acidic vesicles: olanzapine 5 μM; for reduction of olanzapine-induced accumulation of acidic vesicles: plus inhibitor 10 μM; for effect of co-treatment on acidic vesicle accumulation in clozapine-treated cells: clozapine 5 µM
Description: After treatment, the medium was removed, and the cells were stained with 50 nM Lysotracker Deep Red (Invitrogen, Waltham, MA, USA) and 5 μg/mL Hoechst 33342 (Sigma). Staining was conducted in the dark at 37 °C for 30 min. Fluorescence signals were captured using a FLoid Cell Imaging Station (Life Technology, Carlsbad, CA, USA). The ratio of Lysotracker red signal to blue nuclear signal was quantified using ImageJ software. For acidic vesicle rescue experiments, ADSCs were plated at a concentration of 10,000 cells per well in 48-well plates.

PKCζ = experiment: PKC activation (Western blot, P-PKCζ T560 immunofluorescence); type: cell-based, human; settings: 16 h
Description: (§1) After treatments, whole-cell lysates were prepared using RIPA lysis buffer supplemented with protease inhibitors (AEBSF, aprotinin, bestatin, E-64, EDTA, leupeptin, Sigma-Aldrich, Saint Louis, MO, USA) and orthovanadate (Sigma-Aldrich, Saint Louis, MO, USA). The proteins in the lysates were collected and quantified using the Pierce BCA protein assay kit (Thermo Fisher Scientific, Waltham, MA, USA). Subsequently, the proteins were denatured by heating at 95 °C for 5 min in the presence of 2% Sodium Dodecyl Sulfate (SDS, Sigma-Aldrich, Saint Louis, MO, USA), 150 mM dithiothreitol (DTT, Sigma-Aldrich, Saint Louis, MO, USA), and 0.01% bromophenol blue (Sigma-Aldrich, Saint Louis, MO, USA). The samples were then analyzed using SDS-PAGE (SDS-Polyacrylamide Gel Electrophoresis) and Western blotting (WB).
(§2) For INSRβ endocytosis experiments, the cells were stimulated with 50 ng/mL insulin for 15 min. For transferrin endocytosis experiments, the cells were incubated with 25 μg/mL Transferrin Texas Red for 5 min. After treatment, the cells were washed with PBS and fixed with 4% PFA for 10 min at room temperature, followed by an additional PBS wash. The cells were then permeabilized by incubating them with cold HEPES-Triton X-100 buffer for 5 min at 4 °C. After permeabilization, the cells were incubated with primary antibodies for 30 min, followed by incubation with Alexa Fluor 488- or 546-conjugated secondary antibodies (Invitrogen, Waltham, MA, USA) and phalloidin, labeled with either Alexa Fluor 546 or 633 (Invitrogen Waltham, MA, USA) for 30 min. After incubation, coverslips were mounted on glass slides using a mounting medium. Images were acquired using a confocal microscope (Leica TCS SP8, Wetzlar, Germany) and analyzed using ImageJ (v 1.52a) software in order to quantify and analyze the fluorescence signals.

3T3L1 cells = experiment: PA accumulation in cells transfected with DOCK2-Pii; type: cell-based, mouse; settings: olanzapine 5 μM, 16 h, plus inhibitor
Description: Transfection was carried out using Lipofectamine 3000 (Thermo Fisher Scientific, Waltham, MA, USA), following the manufacturer’s instructions. The cells were incubated with the plasmid for 24 h to ensure successful transfection and plasmid expression and were used for experiments 48 h post-transfection.

Gas receptors = system: Gas receptors; parameters: method as in PMID 33152337; settings: acts as a suramin analog; cited from earlier work
TFEB = TFEB nuclear localization (confocal microscopy); type: cell-based, human; settings: olanzapine 5 μM plus inhibitor
Description: as §2

ADSCs [2] = experiment: Vacuolization assay; type: cell-based, human; settings: 5 μM, 4 h
Description: After 4 h, pictures were acquired using a phase contrast microscope (DMi1, Leica, Wetzlar, Germany).

LC3B = experiment: Autophagy induction (LC3B Western blot, LAMP1/LC3B colocalization); type: cell-based, human; settings: 16 h treatment
Description: as §1, §2

ADSCs [3] = settings: 7 days; 1 to 50 μM
ADSCs [4] = experiment: Phospholipidosis assay (LipidTox Green); settings: 5 μM, 16 h
Description: The cells were stained with 1X LipidTox Green (Thermo Fisher Scientific, Waltham, MA, USA) for 16 h to visualize lipid content. […] The cells were then washed with PBS and fixed with 4% paraformaldehyde for 15 min in the dark.

In the case of `C=C1C(=O)NC(C)C(=O)N(C)C(C)C(=O)NC(C(OC(=O)C(NC(C)=O)C(O)C(C)C)C(C)C)C(=O)N(C)C(C(C)OC)C(=O)OC(C)C(NC(C)=O)C(=O)OC(Cc2ccccc2)C(=O)N1C` (centres unmarked) [YM254890] (Ac-T[PhLac][NMeDha]A[NMeA][X1][NMeT](Me); ester 1-C; configuration not given here), the “effect of co-treatment on acidic vesicle accumulation in olanzapine-treated cells” value (ADSCs [1]; 16 h, plus inhibitor) is reported as “strongest effect”, the “reduction of olanzapine-induced accumulation of acidic vesicles” value (“reduction” for short) (ADSCs [1]; 16 h) is reported as “at least 50%” and the “PKCζ phosphorylation in olanzapine-treated cells, co-treatment” value (PKCζ; olanzapine 5 μM, plus inhibitor) is reported as “diminished”. The “effect of co-treatment on PA levels in olanzapine-treated cells” value (shortened to “effect of co-treatment on PA levels”) (3T3L1 cells) was “markedly reduced” and the “concentrations blocking Gas receptors” value (Gas receptors) was “below 10 μM”.

In the case of `CN1CCN(C(=O)C2C(C(=O)O)[C@H]3CC[C@@H]2O3)CC1` (some centres unmarked) [LB100], the “effect of co-treatment on acidic vesicle accumulation in olanzapine-treated cells” value (ADSCs [1]; 16 h, plus inhibitor) is reported as “significant reduction” and the “effect of co-treatment on TFEB nuclear localization induced by olanzapine” value (TFEB) is reported as “complete abrogation”.

In the case of `CC1CCc2c(cc(Br)c(F)c2Br)N1C=O` (centres unmarked) [CE3F4], the “reduction” value (ADSCs [1]; 16 h) is reported as “at least 50%” and the “effect of co-treatment on PA levels” value (3T3L1 cells) is reported as “markedly reduced”.

In the case of `CC(C)(C)c1ccc(C(=O)CCCN2CCC(OC(c3ccccc3)c3ccccc3)CC2)cc1` [ebastine], the vacuolization induction (ADSCs [2]) is reported as “prominently observed”.

With `CN1CCN(C2=Nc3cc(Cl)ccc3Nc3ccccc32)CC1` [clozapine] the “acidic compartment accumulation (Lysotracker staining)” value (ADSCs [1]; 0.5-10 µM, 24 h, 72 h, 7 days) was “progressive time- and dose-dependent increase”, the “concentrations at which acidic compartment accumulation was observed” value (ADSCs [1]; ADSCs) was “below 1 µM” and the vacuolization induction (ADSCs [2]) was “absent”. For the same compound, the “colocalization of LAMP1 with LC3B” value (LC3B) was “increased colocalization”, the “conversion of LC3B-I to LC3B-II” value (LC3B) was “significantly increased” and the “canonical PKCs (cPKCs) and atypical PKCζ activation state” value (PKCζ; 5 μM, Western blot) was “activation”. For the same compound, the “concentrations showing significant toxicity” value (ADSCs [3]) was “above 25 μM”.

In the case of `O=C(NCCN1CCC(n2c(=O)[nH]c3ccccc32)CC1)c1cc2cc(F)ccc2[nH]1` [FIPI], the “effect of co-treatment on acidic vesicle accumulation in olanzapine-treated cells” value (ADSCs [1]; 16 h, plus inhibitor) is reported as “significantly reduced” and the “effect of co-treatment on PA levels” value (3T3L1 cells) is reported as “significantly reduced”.

In the case of `CN(C)CCCn1cc(C2=C(c3c[nH]c4ccccc34)C(=O)NC2=O)c2ccccc21` [Go6850], the “effect of co-treatment on acidic vesicle accumulation in clozapine-treated cells” value (ADSCs [1]; 16 h, plus inhibitor) is reported as “only partially reduced”.

With `CNCCC(Oc1ccc(C(F)(F)F)cc1)c1ccccc1` (centres unmarked) [fluoxetine] the vacuolization induction (ADSCs [2]) was “prominently observed” and the phospholipidosis induction (ADSCs [4]) was “prominently observed”.

In the case of `Cn1cnc(N)c2ncnc1-2` [3-MA, 3-methyladenine], the “effect of co-treatment on acidic vesicle accumulation in clozapine-treated cells” value (ADSCs [1]; 16 h, plus inhibitor) is reported as “significantly reduced” and the “effect of co-treatment on acidic vesicle accumulation in olanzapine-treated cells” value (ADSCs [1]; 16 h, plus inhibitor) is reported as “not seen”.

In the case of `Cc1ccc(C(=O)Nc2ccc(S(=O)(=O)O)c3cc(S(=O)(=O)O)cc(S(=O)(=O)O)c23)cc1NC(=O)c1cccc(NC(=O)Nc2cccc(C(=O)Nc3cc(C(=O)Nc4ccc(S(=O)(=O)O)c5cc(S(=O)(=O)O)cc(S(=O)(=O)O)c45)ccc3C)c2)c1` [suramin], the “reduction” value (ADSCs [1]; 16 h) is reported as “at least 50%”.

In the case of `Nc1ncnc2c1ncn2C1CCCO1` (centres unmarked) [SQ22], the “reduction” value (ADSCs [1]; 16 h) is reported as “at least 50%”.

In the case of `C[C@@H]1C[C@@H]([C@H](O)CC2CC(=O)NC(=O)C2)C(=O)[C@@H](C)C1` [CHX, cycloheximide], the “effect of co-treatment on acidic vesicle accumulation (Lysotracker) in both olanzapine- and clozapine-treated cells” value (ADSCs [1]; SGAs 5 µM, 16 h, plus inhibitor) is reported as “significant reduction”.

In the case of `Cc1nc2sccn2c(=O)c1CCN1CCC(=C(c2ccccc2)c2ccc(F)cc2)CC1` [R59022], the “effect of co-treatment on acidic vesicle accumulation in olanzapine-treated cells” value (ADSCs [1]; 16 h, plus inhibitor) is reported as “did not affect” and the “effect of co-treatment on PA levels” value (3T3L1 cells) is reported as “did not affect”.
